In US9862717B2 (Merck Patent GmbH, priority 2014, dated 2018) one finds IC50 data, which are given here for 9 compounds.

Where only a bound is given, the exact number is not on record here.

T1 sequence (P49336 whole entry): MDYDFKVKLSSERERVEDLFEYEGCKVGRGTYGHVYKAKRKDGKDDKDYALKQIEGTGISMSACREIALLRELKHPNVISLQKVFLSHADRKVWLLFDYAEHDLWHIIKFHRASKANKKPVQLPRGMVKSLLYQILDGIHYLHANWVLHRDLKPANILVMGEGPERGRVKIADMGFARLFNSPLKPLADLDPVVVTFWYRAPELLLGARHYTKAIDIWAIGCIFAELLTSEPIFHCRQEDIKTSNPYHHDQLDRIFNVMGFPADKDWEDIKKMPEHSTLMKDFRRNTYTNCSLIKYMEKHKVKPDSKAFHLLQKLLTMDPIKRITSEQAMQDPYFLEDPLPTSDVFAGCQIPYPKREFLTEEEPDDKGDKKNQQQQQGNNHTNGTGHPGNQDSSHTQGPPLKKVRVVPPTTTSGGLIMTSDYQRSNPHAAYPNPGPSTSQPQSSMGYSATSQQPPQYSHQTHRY
T1 sequence (P24863 whole entry partner): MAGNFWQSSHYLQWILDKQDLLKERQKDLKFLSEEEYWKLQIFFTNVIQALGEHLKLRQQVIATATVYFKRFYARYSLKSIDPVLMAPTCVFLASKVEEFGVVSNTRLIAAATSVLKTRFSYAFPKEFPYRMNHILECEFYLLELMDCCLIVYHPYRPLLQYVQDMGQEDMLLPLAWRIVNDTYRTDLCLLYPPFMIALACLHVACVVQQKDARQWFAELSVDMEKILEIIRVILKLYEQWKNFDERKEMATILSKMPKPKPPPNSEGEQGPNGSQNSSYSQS

One assay concerns the target T1, CDK8/CycC (Homo sapiens, UniProt P49336).
T1 construct: purchased Invitrogen PV4402
The assay can be described thus: FRET based Lanthascreen binding competition assay for CDK8 inhibitory activity. Particulars: CDK8 co-expressed with CycC; class symbols; read-out: IC50. Summed up: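 Competition binding of a dye-labeled ATP-competitive Alexa647 probe to CDK8 co-expressed with CycC, Eu-labeled via biotinylated anti-His antibody/streptavidin.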
On to `Cc1n[nH]c2ncc(C(=O)N3C[C@@H](O)[C@H](c4ccc(Cl)cc4)C3)cc12` [compound 255, [(3R,4S)-3-(4-Chloro-phenyl)-4-hydroxy-pyrrolidin-1-yl]-(3-methyl-1H-pyrazolo[3,4-b]pyridin-5-yl)-methanone], for which the half-inhibitory concentration (IC50) lay in the range of 1 to 10 µM.
For the compound `Cc1n[nH]c2ncc(C(=O)N3C[C@H](c4ccc(Cl)cc4)[C@@H](O)C3)cc12` [compound 256, [(3S,4R)-3-(4-Chloro-phenyl)-4-hydroxy-pyrrolidin-1-yl]-(3-methyl-1H-pyrazolo[3,4-b]pyridin-5-yl)-methanone], the IC50 was < 0.01 µM.
As to `Cc1n[nH]c2ccc(C(=O)N3CCC[C@H]3c3ccc(C(F)(F)F)cc3)nc12` [compound 257, (S)-(3-Methyl-1H-pyrazolo[4,3-b]pyridin-5-yl)(2-(4-(trifluoromethyl)phenyl)pyrrolidin-1-yl)methanone], the IC50 is < 0.01 µM.
On the same count and under the same terms, with `Cc1n[nH]c2ncc(C(=O)N3CCC[C@@H]3c3cccc(C#N)c3)cc12` [compound 258, 3-[(R)-1-(3-Methyl-1H-pyrazolo[3,4-b]pyridine-5-carbonyl)-pyrrolidin-2-yl]-benzonitrile] the figure was 1 to 10 µM; with `Cc1n[nH]c2ncc(C(=O)N3CCC[C@H]3c3cccc(C#N)c3)cc12` [compound 259, 3-[(S)-1-(3-Methyl-1H-pyrazolo[3,4-b]pyridine-5-carbonyl)-pyrrolidin-2-yl]-benzonitrile], 0.1 to 1 µM; with `Cc1n[nH]c2ccc(C(=O)N3CCCC3c3ccc(Cl)c(F)c3)nc12` (stereo not drawn) [compound 260, (2-(4-chloro-3-fluorophenyl)pyrrolidin-1-yl)(3-methyl-1H-pyrazolo[4,3-b]pyridin-5-yl)methanone], < 0.01 µM.
Still for that read-out and setting: the result for `Cc1n[nH]c2ncc(C(=O)N3C[C@H](O)C[C@H]3c3ccc(Cl)cc3)cc12` [compound 261, [(2S,4R)-2-(4-Chloro-phenyl)-4-hydroxy-pyrrolidin-1-yl]-(3-methyl-1H-pyrazolo[3,4-b]pyridin-5-yl)-methanone] reads 0.1 to 1 µM; that for `Cc1n[nH]c2ncc(C(=O)N3CCC[C@H]3c3ccc(CN)cc3)cc12` [compound 262, [(S)-2-(4-Aminomethyl-phenyl)-pyrrolidin-1-yl]-(3-methyl-1H-pyrazolo[3,4-b]pyridin-5-yl)-methanone], 0.1 to 1 µM.

Still in this assay, the particulars now being: CDK8 co-expressed with CycC; numeric value; read-out: IC50.
Consider `Nc1n[nH]c2cnc(C(=O)N3CCC[C@H]3c3ccc(Cl)cc3)cc12` [compound 265], for which the IC50 worked out at 0.34 µM.
